Data from patent US20240218022A1, “ANTI-VISTA MACROCYCLIC PEPTIDES AND COMPOSITIONS” (BRISTOL-MYERS SQUIBB COMPANY, priority 2022, published 2024).
Like-named read-outs stand apart in the source and are kept apart here. Positions of bridges follow the written chain, without caps; N, C: chain ends. Non-standard residues stand in square brackets, D forms with d. Residues, ends and D or L forms follow the SMILES beside them. Phe(3,4,5-F3) = N[C@@H](Cc1cc(F)c(F)c(F)c1)C(=O)O; Trp(1-Me) = Cn1cc(C[C@H](N)C(=O)O)c2ccccc21; Phe(3-Me) = Cc1cccc(C[C@H](N)C(=O)O)c1; 1Nal = N[C@@H](Cc1cccc2ccccc12)C(=O)O; 2Nal = N[C@@H](Cc1ccc2ccccc2c1)C(=O)O; Cit = NC(=O)NCCC[C@H](N)C(=O)O; Ahp(2) = CCCCC[C@H](N)C(=O)O; NMeNle = CCCC[C@H](NC)C(=O)O; NHexGly = CCCCCCNCC(=O)O; Nle = CCCC[C@H](N)C(=O)O; Orn = NCCC[C@H](N)C(=O)O

Molecular target: T1, mouse VISTA (mVISTA) (Mus musculus, UniProt Q9D659)
T1 construct: expressed in transfected cells; host or cells: Human embryonic kidney 293T cells
T1 sequence (Q9D659 33-308): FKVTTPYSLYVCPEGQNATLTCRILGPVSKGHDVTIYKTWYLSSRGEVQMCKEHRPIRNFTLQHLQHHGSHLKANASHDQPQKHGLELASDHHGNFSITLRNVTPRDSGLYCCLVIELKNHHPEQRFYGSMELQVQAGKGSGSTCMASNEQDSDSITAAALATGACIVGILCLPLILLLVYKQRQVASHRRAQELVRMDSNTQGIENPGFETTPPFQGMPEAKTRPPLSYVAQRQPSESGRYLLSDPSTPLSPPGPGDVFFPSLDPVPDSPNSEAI
Test: Cell-Based Binding High-Content Assay For mVISTA (HC CBA mVISTA)
Conditions: read-out: HC CBA mVISTA IC50
Procedure, shortened: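 Read-out: Alexa 647–streptavidin signal imaged on fixed, Hoechst-stained mVISTA-293T cells, with IC50 taken from a four-parameter logistic curve. Compounds competed with 2 nM biotinylated peptide for 30 min at room temperature, tested under both no-wash and wash (1 h compound, media exchange, 1 h) formats.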

[1] = the 19th table, scaffold drawing 22
[2] = the 20th table, scaffold drawing 23

CCCCCCN1CC(=O)N[C@@H](Cc2ccc(O)cc2)C(=O)N[C@@H](CCCC)C(=O)N[C@@H](CC(N)=O)C(=O)N[C@@H](CCCNC(=N)N)C(=O)N(C)[C@@H](CCCC)C(=O)N[C@@H](CCCCC)C(=O)N2CCC[C@H]2C(=O)N[C@@H](C(C)C)C(=O)N[C@@H](CC(=O)O)C(=O)N[C@H](C(=O)NCC(=O)O)CSCC(=O)N[C@@H](Cc2cccc(C)c2)C(=O)N[C@@H](Cc2c[nH]c3ccccc23)C(=O)N[C@@H](CC(=O)O)C1=O [compound 1442] ({CH2CO}-[Phe(3-Me)]WD[NHexGly]Y[Nle]NR[NMeNle][Ahp(2)]PVDCG-OH; thioether N-14)
IC50 [1]: 27.7 nM

CCCCCCN1CC(=O)N[C@@H](Cc2ccc(O)cc2)C(=O)N[C@@H](CCCC)C(=O)N[C@@H](CC(N)=O)C(=O)N[C@@H](CCCNC(N)=O)C(=O)N(C)[C@@H](CCCC)C(=O)N[C@@H](CCCCC)C(=O)N2CCC[C@H]2C(=O)N[C@@H](C(C)C)C(=O)N[C@@H](CC(=O)O)C(=O)N[C@H](C(=O)NCC(=O)O)CSCC(=O)N[C@@H](Cc2cccc(C)c2)C(=O)N[C@@H](Cc2c[nH]c3ccccc23)C(=O)N[C@@H](CC(=O)O)C1=O [compound 1443] ({CH2CO}-[Phe(3-Me)]WD[NHexGly]Y[Nle]N[Cit][NMeNle][Ahp(2)]PVDCG-OH; thioether N-14)
IC50 [1]: 21.2 nM

CCCCCCN1CC(=O)N[C@@H](Cc2ccc(O)cc2)C(=O)N[C@@H](CCCCC)C(=O)N[C@@H](CC(N)=O)C(=O)N[C@@H](CCCNC(=N)N)C(=O)N(C)[C@@H](CCCC)C(=O)N[C@@H](CCCCC)C(=O)N2CCC[C@H]2C(=O)N[C@@H](C(C)C)C(=O)N[C@@H](CC(=O)O)C(=O)N[C@H](C(=O)N[C@@H](CO)C(=O)O)CSCC(=O)N[C@@H](Cc2cccc(C)c2)C(=O)N[C@@H](Cc2c[nH]c3ccccc23)C(=O)N[C@@H](CC(=O)O)C1=O [compound 1444] ({CH2CO}-[Phe(3-Me)]WD[NHexGly]Y[Ahp(2)]NR[NMeNle][Ahp(2)]PVDCS-OH; thioether N-14)
IC50 [1]: 13.3 nM

CCCCCCN1CC(=O)N[C@@H](Cc2ccc(O)cc2)C(=O)N[C@@H](CCCC)C(=O)N[C@@H](CC(=O)O)C(=O)N[C@@H](CCCNC(=N)N)C(=O)N(C)[C@@H](CCCC)C(=O)N[C@@H](CCCCC)C(=O)N2CCC[C@H]2C(=O)N[C@@H](C(C)C)C(=O)N[C@@H](CC(=O)O)C(=O)N[C@H](C(=O)N[C@@H](CO)C(N)=O)CSCC(=O)N[C@@H](Cc2cccc(C)c2)C(=O)N[C@@H](Cc2c[nH]c3ccccc23)C(=O)N[C@@H](CC(=O)O)C1=O [compound 1445] ({CH2CO}-[Phe(3-Me)]WD[NHexGly]Y[Nle]DR[NMeNle][Ahp(2)]PVDCS-NH2; thioether N-14)
IC50 [1]: 9.9 nM

CCCCCCN1CC(=O)N[C@@H](Cc2ccc(O)cc2)C(=O)N[C@@H](CCCC)C(=O)N[C@@H](CC(=O)O)C(=O)N[C@@H](CCCN)C(=O)N(C)[C@@H](CCCC)C(=O)N[C@@H](CCCCC)C(=O)N2CCC[C@H]2C(=O)N[C@@H](C(C)C)C(=O)N[C@@H](CC(=O)O)C(=O)N[C@H](C(=O)N[C@@H](CO)C(N)=O)CSCC(=O)N[C@@H](Cc2cccc(C)c2)C(=O)N[C@@H](Cc2c[nH]c3ccccc23)C(=O)N[C@@H](CC(=O)O)C1=O [compound 1446] ({CH2CO}-[Phe(3-Me)]WD[NHexGly]Y[Nle]D[Orn][NMeNle][Ahp(2)]PVDCS-NH2; thioether N-14)
IC50 [1]: 9.1 nM

CCCCCCN1CC(=O)N[C@@H](Cc2ccc(O)cc2)C(=O)N[C@@H](CCCC)C(=O)N[C@@H](CC(=O)O)C(=O)N[C@@H](CCCNC(N)=O)C(=O)N(C)[C@@H](CCCC)C(=O)N[C@@H](CCCCC)C(=O)N2CCC[C@H]2C(=O)N[C@@H](C(C)C)C(=O)N[C@@H](CC(=O)O)C(=O)N[C@H](C(=O)N[C@@H](CC(=O)O)C(N)=O)CSCC(=O)N[C@@H](Cc2cccc(C)c2)C(=O)N[C@@H](Cc2ccc(O)cc2)C(=O)N[C@@H](CC(=O)O)C1=O [compound 1447] ({CH2CO}-[Phe(3-Me)]YD[NHexGly]Y[Nle]D[Cit][NMeNle][Ahp(2)]PVDCD-NH2; thioether N-14)
IC50 [1]: 15.3 nM

CCCCCCN1CC(=O)N[C@@H](Cc2ccc(O)cc2)C(=O)N[C@@H](CCCC)C(=O)N[C@@H](CC(=O)O)C(=O)N[C@@H](CCCNC(=N)N)C(=O)N(C)[C@@H](CCCC)C(=O)N[C@@H](CCCCC)C(=O)N2CCC[C@H]2C(=O)N[C@@H](C(C)C)C(=O)N[C@@H](CC(=O)O)C(=O)N[C@H](C(=O)N[C@@H](CC(=O)O)C(N)=O)CSCC(=O)N[C@@H](Cc2cccc(C)c2)C(=O)N[C@@H](Cc2ccc(O)cc2)C(=O)N[C@@H](CC(=O)O)C1=O [compound 1448] ({CH2CO}-[Phe(3-Me)]YD[NHexGly]Y[Nle]DR[NMeNle][Ahp(2)]PVDCD-NH2; thioether N-14)
IC50 [1]: 14.2 nM

CCCCCCN1CC(=O)N[C@@H](Cc2ccc(O)cc2)C(=O)N[C@@H](CCCC)C(=O)N[C@@H](CC(=O)O)C(=O)N[C@@H](CCCN)C(=O)N(C)[C@@H](CCCC)C(=O)N[C@@H](CCCCC)C(=O)N2CCC[C@H]2C(=O)N[C@@H](C(C)C)C(=O)N[C@@H](CC(=O)O)C(=O)N[C@H](C(=O)N[C@@H](CC(=O)O)C(N)=O)CSCC(=O)N[C@@H](Cc2cccc(C)c2)C(=O)N[C@@H](Cc2ccc(O)cc2)C(=O)N[C@@H](CC(=O)O)C1=O [compound 1449] ({CH2CO}-[Phe(3-Me)]YD[NHexGly]Y[Nle]D[Orn][NMeNle][Ahp(2)]PVDCD-NH2; thioether N-14)
IC50 [1]: 10.8 nM

CCCCCCN1CC(=O)N[C@@H](Cc2ccc(O)cc2)C(=O)N[C@@H](CCCC)C(=O)N[C@@H](CC(N)=O)C(=O)N[C@@H](CCCNC(=N)N)C(=O)N(C)[C@@H](CCCC)C(=O)N[C@@H](CCCCC)C(=O)N2CCC[C@H]2C(=O)N[C@@H](C(C)C)C(=O)N[C@@H](CC(=O)O)C(=O)N[C@H](C(=O)NCC(=O)O)CSCC(=O)N[C@@H](Cc2cccc(C)c2)C(=O)N[C@@H](Cc2ccc(O)cc2)C(=O)N[C@@H](CC(=O)O)C1=O [compound 1450] ({CH2CO}-[Phe(3-Me)]YD[NHexGly]Y[Nle]NR[NMeNle][Ahp(2)]PVDCG-OH; thioether N-14)
IC50 [1]: 7 nM

CCCCCCN1CC(=O)N[C@@H](Cc2ccc(O)cc2)C(=O)N[C@@H](CCCC)C(=O)N[C@@H](CC(=O)O)C(=O)N[C@@H](CCCNC(=N)N)C(=O)N(C)[C@@H](CCCC)C(=O)N[C@@H](CCCCC)C(=O)N2CCC[C@H]2C(=O)N[C@@H](C(C)C)C(=O)N[C@@H](CC(=O)O)C(=O)N[C@H](C(=O)N[C@@H](CO)C(N)=O)CSCC(=O)N[C@@H](Cc2cccc(C)c2)C(=O)N[C@@H](Cc2ccc(O)cc2)C(=O)N[C@@H](CC(=O)O)C1=O [compound 1451] ({CH2CO}-[Phe(3-Me)]YD[NHexGly]Y[Nle]DR[NMeNle][Ahp(2)]PVDCS-NH2; thioether N-14)
IC50 [1]: 8.6 nM

CCCCCCN1CC(=O)N[C@@H](Cc2ccc(O)cc2)C(=O)N[C@@H](CCCC)C(=O)N[C@@H](CC(N)=O)C(=O)N[C@@H](CCCNC(=N)N)C(=O)N[C@@H](CC(C)C)C(=O)N[C@@H](CCCCC)C(=O)N2CCC[C@H]2C(=O)N[C@@H](C(C)C)C(=O)N[C@@H](CO)C(=O)N[C@H](C(=O)NCC(=O)O)CSCC(=O)N[C@@H](Cc2cccc3ccccc23)C(=O)N[C@@H](Cc2ccc(O)cc2)C(=O)N[C@@H](CC(=O)O)C1=O [compound 1452] ({CH2CO}-[1Nal]YD[NHexGly]Y[Nle]NRL[Ahp(2)]PVSCG-OH; thioether N-14)
IC50 [2]: 19.9 nM

CCCCCCN1CC(=O)N[C@@H](Cc2ccc(O)cc2)C(=O)N[C@@H](CCCC)C(=O)N[C@@H](CC(N)=O)C(=O)N[C@@H](CCCNC(=N)N)C(=O)N[C@@H](CC(C)C)C(=O)N[C@@H](CCCCC)C(=O)N2CCC[C@H]2C(=O)N[C@@H](C(C)C)C(=O)N[C@@H](CC(=O)O)C(=O)N[C@H](C(=O)NCC(=O)O)CSCC(=O)N[C@@H](Cc2ccc3ccccc3c2)C(=O)N[C@@H](Cc2cn(C)c3ccccc23)C(=O)N[C@@H](CC(=O)O)C1=O [compound 1454] ({CH2CO}-[2Nal][Trp(1-Me)]D[NHexGly]Y[Nle]NRL[Ahp(2)]PVDCG-OH; thioether N-14)
IC50 [2]: 3.6 nM

CCCCCCN1CC(=O)N[C@@H](Cc2ccc(O)cc2)C(=O)N[C@@H](CCCC)C(=O)N[C@@H](CC(N)=O)C(=O)N[C@@H](CCCNC(=N)N)C(=O)N[C@@H](CC(C)C)C(=O)N[C@@H](CCCCC)C(=O)N2CCC[C@H]2C(=O)N[C@@H](C(C)C)C(=O)N[C@@H](CC(=O)O)C(=O)N[C@H](C(=O)NCC(=O)O)CSCC(=O)N[C@@H](Cc2ccccc2)C(=O)N[C@@H](Cc2cn(C)c3ccccc23)C(=O)N[C@@H](CC(=O)O)C1=O [compound 1455] ({CH2CO}-F[Trp(1-Me)]D[NHexGly]Y[Nle]NRL[Ahp(2)]PVDCG-OH; thioether N-14)
IC50 [2]: 3.5 nM

CCCCCCN1CC(=O)N[C@@H](Cc2ccc(O)cc2)C(=O)N[C@@H](CCCC)C(=O)N[C@@H](CC(N)=O)C(=O)N[C@@H](CCCNC(=N)N)C(=O)N[C@@H](CC(C)C)C(=O)N[C@@H](CCCCC)C(=O)N2CCC[C@H]2C(=O)N[C@@H](C(C)C)C(=O)N[C@@H](CC(=O)O)C(=O)N[C@H](C(=O)NCC(=O)O)CSCC(=O)N[C@@H](Cc2cc(F)c(F)c(F)c2)C(=O)N[C@@H](Cc2c[nH]c3ccccc23)C(=O)N[C@@H](CC(=O)O)C1=O [compound 1456] ({CH2CO}-[Phe(3,4,5-F3)]WD[NHexGly]Y[Nle]NRL[Ahp(2)]PVDCG-OH; thioether N-14)
IC50 [2]: 17 nM

CCCCCCN1CC(=O)N[C@@H](Cc2ccc(O)cc2)C(=O)N[C@@H](CCCC)C(=O)N[C@@H](CC(N)=O)C(=O)N[C@@H](CCCNC(=N)N)C(=O)N[C@@H](CC(C)C)C(=O)N[C@@H](CCCCC)C(=O)N2CCC[C@H]2C(=O)N[C@@H](C(C)C)C(=O)N[C@@H](CC(=O)O)C(=O)N[C@H](C(=O)NCC(=O)O)CSCC(=O)N[C@@H](Cc2cc(F)c(F)c(F)c2)C(=O)N[C@@H](Cc2ccc(O)cc2)C(=O)N[C@@H](CC(=O)O)C1=O [compound 1457] ({CH2CO}-[Phe(3,4,5-F3)]YD[NHexGly]Y[Nle]NRL[Ahp(2)]PVDCG-OH; thioether N-14)
IC50 [2]: 11.6 nM
